In the NIST ThermoML archive (doi:10.1016/j.tca.2013.02.009):
± gives the expanded uncertainty stated by the source.

Assay: molar heat capacity at constant pressure
Settings: 101.33 kPa, Crystal, Large sample (1 g) DSC

## [O-2].[O-2].[O-2].[Y+3].[Y+3] [yttrium oxide (Y2O3)]
603 K
  molar heat capacity at constant pressure: 122.98 ± 5.2 J/K/mol
613 K
  molar heat capacity at constant pressure: 123.25 ± 5.2 J/K/mol
623 K
  molar heat capacity at constant pressure: 123.52 ± 5.2 J/K/mol
633 K
  molar heat capacity at constant pressure: 123.77 ± 5.2 J/K/mol
643 K
  molar heat capacity at constant pressure: 124 ± 5.3 J/K/mol
653 K
  molar heat capacity at constant pressure: 124.22 ± 5.3 J/K/mol
663 K
  molar heat capacity at constant pressure: 124.43 ± 5.3 J/K/mol
673 K
  molar heat capacity at constant pressure: 124.63 ± 5.3 J/K/mol
683 K
  molar heat capacity at constant pressure: 124.82 ± 5.3 J/K/mol
693 K
  molar heat capacity at constant pressure: 125 ± 5.3 J/K/mol
703 K
  molar heat capacity at constant pressure: 125.16 ± 5.3 J/K/mol
713 K
  molar heat capacity at constant pressure: 125.32 ± 5.3 J/K/mol
723 K
  molar heat capacity at constant pressure: 125.47 ± 5.3 J/K/mol
733 K
  molar heat capacity at constant pressure: 125.62 ± 5.3 J/K/mol
743 K
  molar heat capacity at constant pressure: 125.75 ± 5.3 J/K/mol
753 K
  molar heat capacity at constant pressure: 125.88 ± 5.3 J/K/mol
763 K
  molar heat capacity at constant pressure: 126 ± 5.3 J/K/mol
773 K
  molar heat capacity at constant pressure: 126.12 ± 5.3 J/K/mol
783 K
  molar heat capacity at constant pressure: 126.22 ± 5.4 J/K/mol
793 K
  molar heat capacity at constant pressure: 126.33 ± 5.4 J/K/mol
803 K
  molar heat capacity at constant pressure: 126.42 ± 5.4 J/K/mol
813 K
  molar heat capacity at constant pressure: 126.52 ± 5.4 J/K/mol
823 K
  molar heat capacity at constant pressure: 126.6 ± 5.4 J/K/mol
833 K
  molar heat capacity at constant pressure: 126.68 ± 5.4 J/K/mol
843 K
  molar heat capacity at constant pressure: 126.76 ± 5.4 J/K/mol
853 K
  molar heat capacity at constant pressure: 126.83 ± 5.4 J/K/mol
863 K
  molar heat capacity at constant pressure: 126.9 ± 5.4 J/K/mol
873 K
  molar heat capacity at constant pressure: 126.97 ± 5.4 J/K/mol
883 K
  molar heat capacity at constant pressure: 127.03 ± 5.4 J/K/mol
893 K
  molar heat capacity at constant pressure: 127.09 ± 5.4 J/K/mol
903 K
  molar heat capacity at constant pressure: 127.14 ± 5.4 J/K/mol
913 K
  molar heat capacity at constant pressure: 127.19 ± 5.4 J/K/mol
923 K
  molar heat capacity at constant pressure: 127.24 ± 5.4 J/K/mol
933 K
  molar heat capacity at constant pressure: 127.28 ± 5.4 J/K/mol
943 K
  molar heat capacity at constant pressure: 127.32 ± 5.4 J/K/mol
953 K
  molar heat capacity at constant pressure: 127.36 ± 5.4 J/K/mol
963 K
  molar heat capacity at constant pressure: 127.4 ± 5.4 J/K/mol
973 K
  molar heat capacity at constant pressure: 127.43 ± 5.4 J/K/mol
983 K
  molar heat capacity at constant pressure: 127.46 ± 5.4 J/K/mol
993 K
  molar heat capacity at constant pressure: 127.49 ± 5.4 J/K/mol
1003 K
  molar heat capacity at constant pressure: 127.52 ± 5.4 J/K/mol
1013 K
  molar heat capacity at constant pressure: 127.54 ± 5.4 J/K/mol
1023 K
  molar heat capacity at constant pressure: 127.57 ± 5.4 J/K/mol
1033 K
  molar heat capacity at constant pressure: 127.59 ± 5.4 J/K/mol
1043 K
  molar heat capacity at constant pressure: 127.61 ± 5.4 J/K/mol
1053 K
  molar heat capacity at constant pressure: 127.62 ± 5.4 J/K/mol
1063 K
  molar heat capacity at constant pressure: 127.64 ± 5.4 J/K/mol
1073 K
  molar heat capacity at constant pressure: 127.65 ± 5.4 J/K/mol
1083 K
  molar heat capacity at constant pressure: 127.66 ± 5.4 J/K/mol
1093 K
  molar heat capacity at constant pressure: 127.67 ± 5.4 J/K/mol
1103 K
  molar heat capacity at constant pressure: 127.68 ± 5.4 J/K/mol
1113 K
  molar heat capacity at constant pressure: 127.68 ± 5.4 J/K/mol
1123 K
  molar heat capacity at constant pressure: 127.68 ± 5.4 J/K/mol
1133 K
  molar heat capacity at constant pressure: 127.69 ± 5.4 J/K/mol
1143 K
  molar heat capacity at constant pressure: 127.69 ± 5.4 J/K/mol
1153 K
  molar heat capacity at constant pressure: 127.69 ± 5.4 J/K/mol
1163 K
  molar heat capacity at constant pressure: 127.7 ± 5.4 J/K/mol
1173 K
  molar heat capacity at constant pressure: 127.7 ± 5.4 J/K/mol
1183 K
  molar heat capacity at constant pressure: 127.7 ± 5.4 J/K/mol
1193 K
  molar heat capacity at constant pressure: 127.7 ± 5.4 J/K/mol
1203 K
  molar heat capacity at constant pressure: 127.69 ± 5.4 J/K/mol
